Source: patent publication US20230277630A1, “METHODS AND COMPOSITIONS FOR TREATING AMYOTROPHIC LATERAL SCLEROSIS” (Amylyx Pharmaceuticals, Inc., priority 2022, published 2023)
“And” between values parts separate entries of the source, which are not always exact repeats. Equal entries are not always repeated.

Key:
[1] = design: species or system male Sprague Dawley rats; settings: rat, in vivo
Experimental: Total urine recovery data for Tenofovir, TDF, and PB was calculated for the 24 hour collection period on Days 1 and 5. […] The reported urine recovery data included amount recovered (ng) and percent recovered (%) for […]. Individual and mean Tenofovir, TDF, and PB urine recovery data were presented with SD, reported to three significant figures, and CV %, reported to one decimal place.

BCRP [2] = target: T1, BCRP (Homo sapiens, UniProt Q9UNQ0); experiment: BCRP IC50 assessment, bidirectional cladribine transport in C2BBe1 cells
T1 sequence (Q9UNQ0 1-655): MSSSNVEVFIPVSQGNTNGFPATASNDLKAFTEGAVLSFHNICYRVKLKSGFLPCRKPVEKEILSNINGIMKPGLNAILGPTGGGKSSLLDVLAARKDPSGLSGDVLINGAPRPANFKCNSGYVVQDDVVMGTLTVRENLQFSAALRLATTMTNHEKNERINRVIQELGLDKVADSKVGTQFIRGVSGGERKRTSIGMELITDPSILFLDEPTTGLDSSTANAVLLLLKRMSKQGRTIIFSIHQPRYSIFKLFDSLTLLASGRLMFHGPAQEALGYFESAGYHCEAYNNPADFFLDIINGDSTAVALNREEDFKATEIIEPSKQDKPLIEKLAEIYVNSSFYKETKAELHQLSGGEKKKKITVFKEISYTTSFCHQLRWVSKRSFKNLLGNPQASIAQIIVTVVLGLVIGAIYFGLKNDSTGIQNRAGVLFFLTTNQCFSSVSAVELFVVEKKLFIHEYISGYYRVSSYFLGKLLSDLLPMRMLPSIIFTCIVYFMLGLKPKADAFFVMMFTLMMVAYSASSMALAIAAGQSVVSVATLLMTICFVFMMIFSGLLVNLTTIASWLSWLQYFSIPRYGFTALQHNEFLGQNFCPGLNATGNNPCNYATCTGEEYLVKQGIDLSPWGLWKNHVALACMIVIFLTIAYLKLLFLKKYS
Experimental: (§1) After 30 minutes, the pre-incubation solution was aspirated.

[3] = Human Plasma Protein Binding; format: in vitro ADME
BCRP [4] = target: T1, BCRP; experiment: BCRP IC50 assessment, bidirectional cladribine transport in BCRP-MDCK cells
Experimental: as §1

in vivo = settings: male, CD (Sprague-Dawley) IGS, rat; for Cmax: po, 840 mg/kg, Cmax plasma level
MATE1 = target: T2, MATE1 (Homo sapiens, UniProt Q96FL8)
T2 sequence (Q96FL8 1-570): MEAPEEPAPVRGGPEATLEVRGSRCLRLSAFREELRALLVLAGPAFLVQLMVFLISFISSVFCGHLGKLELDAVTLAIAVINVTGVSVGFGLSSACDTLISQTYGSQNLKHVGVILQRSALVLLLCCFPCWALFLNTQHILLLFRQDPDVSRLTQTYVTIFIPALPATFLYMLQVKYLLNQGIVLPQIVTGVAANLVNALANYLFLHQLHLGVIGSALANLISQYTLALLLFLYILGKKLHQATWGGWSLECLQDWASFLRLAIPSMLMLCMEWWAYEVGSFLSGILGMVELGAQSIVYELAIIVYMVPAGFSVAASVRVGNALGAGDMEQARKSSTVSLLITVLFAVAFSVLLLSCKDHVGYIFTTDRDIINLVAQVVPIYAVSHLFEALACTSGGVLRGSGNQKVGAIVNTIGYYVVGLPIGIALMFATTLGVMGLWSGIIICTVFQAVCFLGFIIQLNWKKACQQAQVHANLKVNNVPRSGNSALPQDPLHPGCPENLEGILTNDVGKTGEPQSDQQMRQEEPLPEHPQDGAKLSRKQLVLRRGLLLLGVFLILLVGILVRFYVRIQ

[5] = Non-specific binding assessment, uptake transporter format (cell-free poly-D-lysine plates); format: in vitro ADME; settings: cell-free poly-D-lysine-coated 24-well plates, without BSA pre-incubation, both matrices
Experimental: Two treatments (three wells each) were included: in the first treatment, the wells were pre-incubated for 5 minutes with HBSSg_7.4_BSA or HBSSg_8.5_BSA; in the second treatment, no pre-incubation was performed (Table 32). After the pre-incubation, the solution was aspirated, and dosing solution (500 μL) was added to each well. […] After the incubation, aliquots (200 μL) were withdrawn from each chamber, combined with an equal volume of acetonitrile containing IS, and stored at 4° C. until analysis.

[6] = Non-specific binding assessment, efflux transporter format (cell-free Transwell plates); format: in vitro ADME; settings: pH 7.4, all three replicates
Excerpt: Triplicate wells were used for the assay (Table 31). The samples were withdrawn at pre-selected time points from the receiver and donor compartments and mixed with an equal volume of acetonitrile containing IS.

OCT2 = target: T3, OCT2 (Homo sapiens, UniProt O15244)
T3 sequence (O15244 1-555): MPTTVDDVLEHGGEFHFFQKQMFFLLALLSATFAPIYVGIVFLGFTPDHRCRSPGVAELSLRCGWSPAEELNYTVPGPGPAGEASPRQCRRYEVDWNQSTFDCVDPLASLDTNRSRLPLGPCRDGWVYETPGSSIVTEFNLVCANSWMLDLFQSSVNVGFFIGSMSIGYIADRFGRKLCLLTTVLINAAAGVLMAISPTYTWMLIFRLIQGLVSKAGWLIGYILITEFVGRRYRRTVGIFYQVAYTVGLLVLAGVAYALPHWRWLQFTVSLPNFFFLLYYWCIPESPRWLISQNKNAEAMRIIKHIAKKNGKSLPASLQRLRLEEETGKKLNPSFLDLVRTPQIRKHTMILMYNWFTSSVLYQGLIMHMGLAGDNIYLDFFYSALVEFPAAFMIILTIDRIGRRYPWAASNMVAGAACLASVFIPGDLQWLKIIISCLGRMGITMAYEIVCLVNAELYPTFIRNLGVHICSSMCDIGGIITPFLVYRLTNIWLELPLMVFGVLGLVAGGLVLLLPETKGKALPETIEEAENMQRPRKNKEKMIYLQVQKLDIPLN

[7] = Solubility assessment in HBSSg_7.4 and HBSSg_8.5; settings: for solubility: 37 °C, thermodynamic from solid; for Measured Concentration / Percent of the Nominal Concentration: replicates 1-3; for Measured Concentration: incubated overnight
[8] = Relevant concentrations of TUDCA and PB for in vitro transporter assessment ([I]1, [I]2, Iin,max); settings: for Plasma Cmax (total [I]1): component of AMX0035; for [I]2: estimated, highest oral dose TUDCA 1000 mg, PB 3000 mg; for Unbound Cmax (Unbound [I]1) / Unbound [I]in, max: projected
[9] = HBSSg 7.4 buffer, pH 7.4, aqueous buffer
[10] = HBSSg 8.5 buffer, pH 8.5, aqueous buffer

Compound	IC50 (BCRP [2])	fraction unbound [3]	IC50 (BCRP [4])	Cmax (in vivo)	IC50 (MATE1)	recovery at 5 min [5]	recovery [6]	IC50 (OCT2)	solubility [7, 9]	solubility [7, 10]	estimated [I]2 ([8]; Table 28)	projected unbound Cmax ([8]; Table 28)	Plasma Cmax (total [I]1) [8]	[I]2 [8]	Unbound Cmax (Unbound [I]1) [8]	Unbound [I]in, max [8]	other results
O=C(O)CCCc1ccccc1 [PB, sodium phenylbutyrate]	1790 to 5370 µM	0.179	2390 to 7160 µM	10200 ng/mL	24600 to 73900 µM	> 90%	> 80%	> 14800 µM	≥ 64.4 mM	≥ 73.9 mM	64447 µM	148 µM	826 µM	64447 µM	148 µM	326 µM	Urine concentrations ([1]; male, Sprague Dawley, po): Urine concentrations for PB analysis in all animals on Day 1, for TUDCA analysis in all animals on Days 1 and 5, and for TDF analysis in two animals on Day 1 and one animal on Day 5 were BLQ (<20 ng/mL) so no recovery data was calculated.; Measured Concentration ([7]; HBSSg_7.4): 52000 µM and 59300 µM and 52800 µM; Percent of the Nominal Concentration ([7]; HBSSg_7.4, target 8005 (TUDCA), 64447 μM (PB)): 80.7% and 92.0%; Measured Concentration ([7]; HBSSg_8.5): 62200 µM and 53200 µM and 61100 µM; Percent of the Nominal Concentration ([7]; HBSSg_8.5, target 810 μM (TUDCA), 73927 μM (PB)): 84.1% and 72.0% and 82.6%; projected unbound Iin,max ([8]; human): 326 µM; unbound [I]1 ([8]; human): 148 µM
C[C@H](CCC(=O)NCCS(=O)(=O)O)[C@H]1CC[C@H]2[C@@H]3[C@@H](O)C[C@@H]4C[C@H](O)CC[C@]4(C)[C@H]3CC[C@]12C [TUDCA, tauroursodeoxycholic acid]	222 to 667 µM	0.015	296 to 889 µM	298 ng/mL	270 to 810 µM	> 90%	> 80%	> 162 µM	≥ 8.01 mM	≥ 0.81 mM	8005 µM	1.62 µM	108 µM	8005 µM	1.62 µM	3.48 µM	detection in urine [1]: not detected in any urine samples; Tmax (in vivo; individual Tmax): 1 to 2 h; unbound [I]1 ([8]; Table 28): 1.62 µM; projected unbound Iin,max ([8]; oral administration, Table 28): 3.48 µM
